Literature values as cited in patent publication EP1048712A1, “A process of treating fabrics with a laundry detergent additive tablet” (THE PROCTER & GAMBLE COMPANY, priority 1999, dated 2000).

settings: 25°C

Compared with `CC(=O)O` [acetate], `N#CS` [NCS-] is 1.9-fold lower in “base hydrolysis rates (kOH)” value: 0.00096 M⁻¹ s⁻¹ for the first, 0.0005 M⁻¹ s⁻¹ for the second.

Compared with oxalate, `O=CO` [formate] is 2.3-fold higher in “base hydrolysis rates (kOH)” value: 0.00025 M⁻¹ s⁻¹ for the first, 0.00058 M⁻¹ s⁻¹ for the second.
